US20250228858A1, “ANTI-CANCER COMBINATION THERAPY” (Boehringer Ingelheim International GmbH, priority 2023, published 2025)

What was measured:
[1] = system: HER2-overexpressing human gastric cancer cell line NCI-N87; assay: NCI-N87 subcutaneous xenograft, zongertinib with T-DXd; type: in vivo, NMRI-Foxn1^nu mice; conditions: for Regressions >30% / TGI: day 22; for Regressions >30%: tumors regressed/total
Description: The study is performed in human gastric cancer cell line NCI-N87 grown as subcutaneous xenografts in NMRI-Foxn1^nu mice. Day 1 was the first day, day 21 the last day of treatment and day 22 the final day of analysis. […]
NCI-N87 is a HER2-overexpressing human gastric cancer cell line that can be obtained from the American Type Culture Collection (ATCC #CRL-5822). Cells are cultured in T175 tissue culture flasks at 37° C. and 5% CO2. The medium used is RPMI 1640 (ATCC #30-2001) supplemented with 10% fetal calf serum (FCS) (Thermo Scientific #SH 30084.03). Cultures are split twice weekly with a ratio of 1:2.
Mice are 6- to 10-week-old female NMRI-Foxn1^nu purchased from Taconic, Denmark. After arrival at the animal facility, mice are allowed to adjust to conditions at least for 5 days before they are used for the experiment. They are housed in Macrolon® type III cages in groups of 8 to 10 under pathogen-free, controlled and standardized conditions at 21.5±1.5° C. temperature, 55±10% humidity and 12-h light-dark cycle. Standardized diet (PROVIMI KLIBA) and autoclaved tap water are provided ad libitum. Subcutaneous microchips implanted under isoflurane anaesthesia are used to identify each mouse. Cage cards showing the study number, the animal identification number, the compound, the dose level, the administration route as well as the schedule remain with the animals throughout the study.
To establish subcutaneous tumors, NCI-N87 cells are harvested by centrifugation, washed and resuspended in PBS+5% FCS at 2.5×10^7 cells/ml. 100 μl cell suspension containing 2.5×10^6 cells is injected subcutaneously into the right flank of the mice (1 site per mouse).
The suspension is used for a maximum of 7 days.
T-DM1 (Kadcyla) can be purchased from Roche.
Mice in the control group are treated with vehicle, i.e.: • (i) 0.5% Natrosol, administered once daily for the duration of the treatment intragastrally by gavage needle with a volume of 10 ml/kg body weight; and • (ii) saline (0.9%), administered once every three weeks intravenously into the tail vein with a volume of 5 ml/kg.
Tumor volumes are measured three times a week with a caliper. The volume of each tumor [in mm^3] is calculated according to the formula: […]
To monitor side effects of treatment, mice are inspected daily for abnormalities and body weight is determined three times a week. […] In addition, animals with tumor sizes exceeding 1500 mm^3 in diameter, with ulcerating tumors or 18% body weight loss are euthanized for ethical reasons.
For a quick overview of possible treatment effects, the median of the tumor volume of each treatment group T is referred to the median of the control C as tumor growth inhibition (TGI) defined as: […]

[2] = system: HER2-overexpressing human esophagus cancer cell line OE19; assay: OE19 subcutaneous xenograft, zongertinib with trastuzumab; type: in vivo, NMRI-Foxn1^nu mice; conditions: day 14; for Regressions >30%: tumors regressed/total (partial response)
Description: The study is performed in human esophagus cancer cell line OE19 grown as subcutaneous xenografts in NMRI-Foxn1^nu mice. Day 1 was the first day, day 14 the last day of treatment and final day of analysis.
OE19 is obtained and cultured as described in Example 3 (see paragraph 3.1.2).
Mice in the control group are treated with vehicle, i.e.: • (iii) 0.5% Natrosol, administered once daily for the duration of the treatment intragastrally by gavage needle with a volume of 10 ml/kg body weight; and • (iv) saline (0.9%), administered once weekly intraperitoneally with a volume of 10 ml/kg.
Tumor volumes and side effects are monitored as described in Example 1 (see paragraph 1.1.6), except that control animals are sacrificed when the median tumor volume of the group reaches a size of approximately 640 mm^3.
The statistical evaluation of the tumor volume and the body weight is conducted on day 14 (last day of the study). Apart from this, statistical analysis was performed as described in Example 1 (see paragraph 1.1.7), with no evaluation of tumor growth after stop of treatment.

[3] = system: HER2-overexpressing human breast cancer cell line SUM190PT; type: in vivo
Description: The study is performed in human breast cancer cell line SUM190PT grown as subcutaneous xenografts in NMRI-Foxn1^nu mice. Day 1 was the first day, day 21 the last day of treatment and final day of analysis.
Cells are obtained and cultured as described in Example 8 (see paragraph 8.1.2).
Capecitabine can be purchased from Roche Pharma AG. Capecitabine is suspended with 0.5% Natrosol and administered intragastrally with a volume of 10 ml/kg.
Tumor volumes and side effects are monitored as described in Example 1 (see paragraph 1.1.6), except that control animals are sacrificed when the median tumor volume of the group reaches a size of approximately 540 mm^3.
The statistical evaluation of the tumor volume and the body weight is conducted on day 21 (last day of the study). Apart from this, statistical analysis was performed as described in Example 1 (see paragraph 1.1.7), with no evaluation of tumor growth after stop of treatment.

[4] = system: HER2-overexpressing human ovarian cell line SK-OV-3; assay: SK-OV-3 subcutaneous xenograft, zongertinib with T-DXd; type: in vivo, NMRI-Foxn1^nu mice
Description: The study is performed in human ovarian cancer cell line SK-OV-3 grown as subcutaneous xenografts in NMRI-Foxn1^nu mice. Day 1 was the first day, day 20 the last day of treatment and final day of analysis.
SK-OV-3 is a HER2-overexpressing human ovarian cancer cell line that can be obtained from ATCC (lot HTB-77). Cells are cultured in T75, T175 and 5-Layer tissue culture flasks at 37° C. and 5% CO2. The medium used is IMDM (PAN-Biotech, #P04-200150) supplemented with 10% FCS (Cytiva HyClone Characterized FBS, SH30084.03n). Cultures are split twice weekly with a ratio of 1:2-1:3.
To establish subcutaneous tumors, SK-OV-3 cells are harvested by centrifugation, washed and resuspended in PBS+5% FCS at 5×10^7 cells/ml. 100 μl cell suspension containing 5×10^6 cells is injected subcutaneously into the right flank of mice (1 site per mouse).
Apart from this, statistical analysis was performed as described in Example 1 (see paragraph 1.1.7), with no evaluation of tumor growth after stop of treatment.

[5] = zongertinib 10 mg/kg qdx21 p.o., alone or combined with T-DXd 3 mg/kg q21dx1 i.v.
[6] = zongertinib 20 mg/kg qdx21 p.o., T-DXd 3 mg/kg q21dx1 i.v., alone or combined
[7] = zongertinib 20 mg/kg qdx14 p.o., trastuzumab 20 mg/kg q7dx2 i.p., alone or combined

## C=CC(=O)NC1CCN(c2ncc3ncnc(Nc4ccc(Oc5ccc6c(c5)ncn6C)c(C)c4)c3n2)CC1 [Zongertinib, N-{1-[8-({3-methyl-4-[(1-methyl-1H-1,3-benzodiazol-5-yl)oxy]phenyl}amino)-[1,3]diazino [5,4-d]pyrimidin-2-yl]piperidin-4-yl}prop-2-enamide]
[1]; [5]
  Regressions >30%: 5/8
  TGI: 114%
[1]; [6]
  Regressions >30%: 7/8
  TGI: 123%
[1]; zongertinib 10 or 20 mg/kg/day, T-DXd 3 mg/kg once, 21-day experiment
  effect on tumor growth (median tumor volumes over time): continuously shrank more than those in mice treated with T-DXd
[2]; number of tumors out of 8, zongertinib 20 mg/kg qdx14, trastuzumab 20 mg/kg q7dx2, monotherapies
  stable disease: no stable disease
[2]; [7]
  Regressions >30%: 0/8
  TGI: 80%
[2]; zongertinib 20 mg/kg qdx14 p.o., trastuzumab 20 mg/kg q7dx2 i.p., alone or combined, listed as zongertinib
  Regressions >30%: no partial response
[3]; day 21, tumors regressed/total (partial response), zongertinib 10 mg/kg qdx21 p.o., capecitabine 400 mg/kg qdx21 p.o., trastuzumab 20 mg/kg q7dx3 i.p., alone or combined
  Regressions >30%: 0/8
[3]; day 21, zongertinib 10 mg/kg qdx21 p.o., capecitabine 400 mg/kg qdx21 p.o., trastuzumab 20 mg/kg q7dx3 i.p., alone or combined
  TGI: 53%
[3]; zongertinib 10 mg/kg qdx21, capecitabine 400 mg/kg qdx21, trastuzumab 20 mg/kg q7dx3, alone or triple combination
  effect on tumor growth (median tumor volumes over time): delayed tumor growth but did not shrink tumors
[4]; day 15, zongertinib 10 mg/kg qdx20 p.o., T-DXd 7 mg/kg q21dx1 i.v., alone or combined
  TGI: 91%
[4]; day 20, tumors regressed/total (partial response), zongertinib 10 mg/kg qdx20 p.o., T-DXd 7 mg/kg q21dx1 i.v., alone or combined
  Regressions >30%: 0/8
[4]; day 20, zongertinib 10 mg/kg qdx20 monotherapy
  stable diseases: 2 out of 8
